Assay: Test for the stabilizing activity of Vitamin E on NADH (acid degradation in water at pH 4, 32° C.)
Type: physicochemical
Settings: within 20 minutes
Protocol: TEST FOR THE STABILIZING ACTIVITY OF VITAMIN E ON NADH Two beakers are prepared containing 50 g of water at a pH 4 and a constant temperature of 32° C. 10 mg of NADH are dissolved in the first beaker and agitate. The effect of the acidity deactivates the NADH, which splits up into NAD+H. Within 20 minutes, 9.5 mg of NADH are split-up, while 0.5 mg remain unchanged. In a second beaker […] of NADH and 5 mg of Vitamin E are dissolved. The effect of the acidity deactivates the NADH, which splits up into NAD+H. Within 20 minutes, 7.5 mg of NADH are split-up, while 2.5 mg of NADH remain unchanged. The parameters of pH 4 and 32° C. for a duration of 20 minutes has been chosen as the food supplement is to be assumed in the morning on an empty stomach, 30 minutes before breakfast. This leads the tablets to easily pass the physiological stomach barrier in 20 minutes, so as reach the first portion of the intestine, where it can be absorbed and enter the blood circulating system.

[1] = 20 mg NADH with 5 mg Vitamin E in 50 g water

In the case of NC(=O)C1=CN([C@@H]2O[C@H](COP(=O)(O)OP(=O)(O)OC[C@H]3O[C@@H](n4cnc5c(N)ncnc54)[C@H](O)[C@@H]3O)[C@@H](O)[C@H]2O)C=CC1 [NADH, nicotinamide adenine dinucleotide in a reduced form], the NADH remaining unchanged (10 mg NADH alone in 50 g water) is reported as 0.5 mg, the “NADH split-up (into NAD+H)” value (10 mg NADH alone in 50 g water) is reported as 9.5 mg and the NADH remaining unchanged [1] is reported as 2.5 mg. For the same compound, the “NADH split-up (into NAD+H)” value [1] was 7.5 mg.
